Source: patent publication US7893066B2, “Pyridol[2,3-B]pyrazinones for use as stearoyl CoA desaturase inhibitors” (Gilead Palo Alto, Inc., priority 2006, dated 2011)

Target: T1, stearoyl-CoA desaturase (SCD) (Rattus norvegicus, UniProt P07308)
T1 construct: from tissue; host or cells: liver microsomes of male Sprague Dawley rats, with SCD induced by a carbohydrate-rich diet
T1 sequence (P07308 1-358): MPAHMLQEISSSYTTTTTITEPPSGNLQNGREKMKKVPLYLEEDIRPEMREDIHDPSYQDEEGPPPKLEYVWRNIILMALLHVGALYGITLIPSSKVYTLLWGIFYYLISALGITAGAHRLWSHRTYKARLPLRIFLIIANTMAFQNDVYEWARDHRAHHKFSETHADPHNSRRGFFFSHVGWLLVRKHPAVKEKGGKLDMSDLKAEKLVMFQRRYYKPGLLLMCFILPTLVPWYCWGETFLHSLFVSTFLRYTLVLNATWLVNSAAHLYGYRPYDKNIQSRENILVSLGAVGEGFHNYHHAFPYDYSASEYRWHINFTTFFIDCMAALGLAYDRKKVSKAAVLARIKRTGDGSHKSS
Assay: SCD assay, rat liver microsomes with [3H]stearoyl CoA (adapted from Talamo and Bloch)
Format: biochemical
Conditions: second table, same SCD assay
Text: The identification of compounds of the invention as SCD inhibitors was readily accomplished using the SCD enzyme and microsomal assay procedure described in Talamo and Bloch (1969) Analytical Biochemistry 29:300-304.
The rat liver microsomes were collected according to the procedure described in Ozols (1990) Methods Enzm, 182:225.
Male Spraque Dawley Rats were placed on regimented fasting protocol for one week to stimulate SCD enzymatic activity. 48-hour periods were alternated between feeding and fasting to induce and down-regulate SCD activity with SCD activity being induced via carbohydrate rich diet prior to liver perfusion and collection.
The rats were anesthetized with Isoflurane inhalation anesthetic, the liver perfused with cold phosphate buffered saline (PBS), weighed, and chilled in cold homogenization buffer (250 mM sucrose, 10 mM Tris, 1 mM EDTA, pH 7.6.
The livers were finely minced and placed in homogenization tube. 40 mL of homogenization buffer was added to the homogenization tube and the liver homogenized and centrifuged in a pre-chilled SLA-600 TC at 800G rotor for 10 min at 4° C.
Following centrifugation, the supernatant was collected and the pellet removed and discarded. This supernatant was then centrifuged at 10,000G for 35 minutes. Following centrifugation, the supernatant was collected and the pellet discarded. The supernatant was further centrifuged in a pre-chilled 45-Ti rotor at 130,000 G (41,000 RPM) for 90 minutes at 4° C.
The supernatant was then aspirated off and the collected microsomal pellet washed in 25 mL of Glycerol PBS (1×PBS 7.4, 20% Glycerol) and resuspended in 4-5 volumes of Glycerol PBS.
The protein concentration of the microsomal preparation was determined by BCA assay (Pierce) and the microsomes were aliquoted and stored at −80° C.
Biobeads were ground to a smaller size in a mortar and pestle and filtered through 300 μM mesh and then resuspended in 3.6% TCA.
SCD was determined in the desaturase assay buffer. This assay buffer contained 0.1 M Tris buffer, pH 7.2, 2 mM NADH, 4.8 mM ATP, 0.5 mM CoA, 4.8 mM MgCl2, and 0.1% BSA.
1 μl of each compound of Formula I was added to an assay plate by a low volume (0.5-10 μL) multichannel pipette. A DMSO control was also prepared. The microsomes were quickly thawed and added to assay buffer so that a concentration of 1-0.1 mg/ml was achieved (0.5-0.05 mg/ml assay final). 50 μl of the microsome suspension in assay buffer was then added into each well in the compound assay plate, the plate was covered, and the microsomes preincubated with the compounds for 30-60 minutes on the orbital shaker, 50-75 rpm, at room temperature.
After preincubation, the reaction was initiated by the addition of 50 μl of substrate solution (20 μM Stearoyl CoA, [3H]Stearoyl CoA, 74nCi) to the preincubated microsomes/compound suspensions in MilliQ (Millipore) H2O. The reaction mixtures were then incubated for 45 minutes on the orbital shaker at 50-75 rpm at room temperature.
The reaction was terminated by the addition of 10 μl of 21% trichloroacetic acid (TCA) to the reaction mixture followed incubation on the orbital shaker for 30 minutes at 50-75 rpm at room temperature followed by centrifugation for 5 minutes at 3700 rpm.
50 μl of a 6% Bio-Bead suspension in H2O was added to the reaction mixture and the assay plate was sealed. The Bio-Bead mixture was incubated on the orbital shaker for 1 to 24 hours, 100-150 rpm at room temperature, and then the mixture was centrifuged at 2000g for 5 minutes to pellet the Bio-Beads.
25 μl of the supernatant was harvested from each well and transferred to a detection plate. 100 μl of OptiPhase SuperMix scinitillation cocktail (containing sufficient NaOH to neutralize the TCA) was added and the solutions mixed by vigorous shaking (300-400 rpm) for 5 minutes at room temperature.

In the case of `Cc1nc2ccc(NCc3cccc(C(F)(F)F)c3)cc2n(CCNC(N)=O)c1=O` [compound 53, 1-(2-(3-methyl-2-oxo-7-(3-(trifluoromethyl)benzylamino)quinoxalin-1(2H)-yl)ethyl)urea], the IC50 is reported as 15 nM.

“3-(3-oxo-6-(3-(trifluoromethyl)benzylamino)-2-(4-(trifluoromethyl)phenyl)pyrido[2,3-b]pyrazin-4(3H)-yl)propanamide [compound 38]” gave an IC50 of 130 nM.

With `CC(=O)NCCn1c(=O)cnc2ccc(NCc3ccc(Cl)c(Cl)c3)nc21` [compound 14, N-(2-(6-(3,4-dichlorobenzylamino)-3-oxopyrido[2,3-b]pyrazin-4(3H)-yl)ethyl)acetamide] the IC50 was 510 nM.

Compound `COc1ccc(-c2nc3ccc(NCc4cccc(OC(F)(F)F)c4)nc3n(CCNC(C)=O)c2=O)cc1` [compound 20] has an IC50 of 260 nM.

With `CC(=O)NCCN1C(=O)C(C)Nc2cc(NC(=O)OCc3ccccc3)cnc21` (stereo not drawn) [compound 44, benzyl 4-(2-acetamidoethyl)-2-methyl-3-oxo-1,2,3,4-tetrahydropyrido[2,3-b]pyrazin-7-ylcarbamate] the IC50 was 240 nM.

`COc1ccc(-c2nc3ccc(NCc4ccc(Cl)c(Cl)c4)nc3n(CCNC(=O)CN(C)C)c2=O)cc1` [compound 32, N-(2-(6-(3,4-dichlorobenzylamino)-2-(4-methoxyphenyl)-3-oxopyrido[2,3-b]pyrazin-4(3H)-yl)ethyl)-2-(dimethylamino)acetamide] was tested, and the IC50 was 12000 nM.

`CCOC(=O)c1nc2ccc(NCc3cccc(C(F)(F)F)c3)nc2n(CCNC(C)=O)c1=O` [compound 17, ethyl 4-(2-acetamidoethyl)-3-oxo-6-(3-(trifluoromethyl)benzylamino)-3,4-dihydropyrido[2,3-b]pyrazine-2-carboxylate] gave an IC50 of 6700 nM.

For “N-(2-(6-(3,4-dichlorobenzylamino)-2-(4-methoxyphenyl)-3-oxopyrido[2,3-b]pyrazin-4(3H)-yl)ethyl)-2-hydroxyacetamide [compound 34]”, the IC50 was 120 nM.

`Cc1nc2ccc(NCc3cccc(C(F)(F)F)c3)cc2n(CCC(=O)NCCO)c1=O` [compound 50, N-(2-hydroxyethyl)-3-(3-methyl-2-oxo-7-(3-(trifluoromethyl)benzylamino)quinoxalin-1(2H)-yl)propanamide] was tested, and the IC50 was 230 nM.

Work on `COc1ccc(-c2nc3ccc(NCc4cccc(C)c4)nc3n(CCNC(C)=O)c2=O)cc1` [compound 18, N-(2-(2-(4-methoxyphenyl)-6-(3-methylbenzylamino)-3-oxopyrido[2,3-b]pyrazin-4(3H)-yl)ethyl)acetamide] yielded an IC50 of 380 nM.

`CC(=O)NCCn1c(=O)c(-c2ccc(NC(C)=O)cc2)nc2ccc(NCc3cccc(C(F)(F)F)c3)nc21` [compound 25, N-(4-(4-(2-acetamidoethyl)-3-oxo-6-(3-(trifluoromethyl)benzylamino)-3,4-dihydropyrido[2,3-b]pyrazin-2-yl)phenyl)acetamide] gave an IC50 of 4300 nM.

Compound `COc1ccc(-c2nc3ccc(NCc4ccc(Cl)c(Cl)c4)nc3n([C@H]3CCNC3)c2=O)cc1` [compound 2, (S)-6-(3,4-dichlorobenzylamino)-2-(4-methoxyphenyl)-4-(pyrrolidin-3-yl)pyrido[2,3-b]pyrazin-3(4H)-one] has an IC50 of 1800 nM.

Work on “(R)-3-(2-(4-methoxyphenyl)-3-oxo-6-(3-(trifluoromethyl)benzylamino)pyrido[2,3-b]pyrazin-4(3H)-yl)butanamide [compound 22]” yielded an IC50 of 67 nM.

`COc1ccc(-c2nc3ccc(NCc4ccc(F)c(C)c4)cc3n(CCNC(C)=O)c2=O)cc1` [compound 63, N-(2-(7-(4-fluoro-3-methylbenzylamino)-3-(4-methoxyphenyl)-2-oxoquinoxalin-1(2H)-yl)ethyl)acetamide] gave an IC50 of 5 nM.

Compound `CC(=O)NCCn1c(=O)c(-c2ccc(C)cc2)nc2ccc(NCc3cccc(C(F)(F)F)c3)nc21` [compound 26, N-(2-(3-oxo-2-p-tolyl-6-(3-(trifluoromethyl)benzylamino)pyrido[2,3-b]pyrazin-4(3H)-yl)ethyl)acetamide] has an IC50 of 110 nM.

In the case of `COc1ccc(-c2nc3ccc(NCc4cc(C(F)(F)F)ccn4)cc3n(CCNC(C)=O)c2=O)cc1` [compound 64, N-(2-(3-(4-methoxyphenyl)-2-oxo-7-((4-(trifluoromethyl)pyridin-2-yl)methylamino)quinoxalin-1(2H)-yl)ethyl)acetamide], the IC50 is reported as 39 nM.

`COc1ccc(-c2nc3ccc(NCc4ccc(Cl)c(Cl)c4)nc3n(CCNC(=O)CNC(C)=O)c2=O)cc1` [compound 41, 2-acetamido-N-(2-(6-(3,4-dichlorobenzylamino)-2-(4-methoxyphenyl)-3-oxopyrido[2,3-b]pyrazin-4(3H)-yl)ethyl)acetamide] showed an IC50 of 1100 nM.

With “N-(2-(3-oxo-6-(3-(trifluoromethyl)benzylamino)-2-(4-(trifluoromethyl)phenyl)pyrido[2,3-b]pyrazin-4(3H)-yl)ethyl)acetamide [compound 37]” the IC50 was 1300 nM.

Compound “3-(2-(4-ethylphenyl)-3-oxo-6-(3-(trifluoromethyl)benzylamino)pyrido[2,3-b]pyrazin-4(3H)-yl)propanamide [compound 29]” has an IC50 of 150 nM.

In the case of “(S)-2-hydroxy-N-(2-(3-methyl-2-oxo-7-(3-(trifluoromethyl)benzylamino)quinoxalin-1(2H)-yl)ethyl)propanamide [compound 48]”, the IC50 is reported as 8000 nM.

In the case of `COc1ccc(-c2nc3cc(NC(=O)OCc4ccccc4)ccc3n(CCNC(C)=O)c2=O)cc1` [compound 46, benzyl 1-(2-acetamidoethyl)-3-(4-methoxyphenyl)-2-oxo-1,2-dihydroquinoxalin-6-ylcarbamate], the IC50 is reported as 20000 nM.

Work on `COc1ccc(-c2nc3ccc(NCc4ccc(Cl)c(Cl)c4)nc3n(C(C)CC(N)=O)c2=O)cc1` (stereo not drawn) [compound 5, 3-(6-(3,4-dichlorobenzylamino)-2-(4-methoxyphenyl)-3-oxopyrido[2,3-b]pyrazin-4(3H)-yl)butanamide] yielded an IC50 of 53 nM.

“3-(3-oxo-2-(4-propylphenyl)-6-(3-(trifluoromethyl)benzylamino)pyrido[2,3-b]pyrazin-4(3H)-yl)propanamide [compound 31]” showed an IC50 of 380 nM.

`CONC(=O)CCn1c(=O)c(-c2ccc(OC)cc2)nc2ccc(NCc3cccc(C(F)(F)F)c3)nc21` [compound 16, N-methoxy-3-(2-(4-methoxyphenyl)-3-oxo-6-(3-(trifluoromethyl)benzylamino)pyrido[2,3-b]pyrazin-4(3H)-yl)propanamide] gave an IC50 of 930 nM.

Work on “N-(2-(7-(2-(2-chlorophenoxy)ethylamino)-3-(4-methoxyphenyl)-2-oxoquinoxalin-1(2H)-yl)ethyl)acetamide [compound 55]” yielded an IC50 of 250 nM.

Compound `COc1ccc(-c2nc3ccc(NCc4cc(C(F)(F)F)ccn4)nc3n(CCNC(C)=O)c2=O)cc1` [compound 4, N-(2-(2-(4-methoxyphenyl)-3-oxo-6-((4-(trifluoromethyl)pyridin-2-yl)methylamino)pyrido[2,3-b]pyrazin-4(3H)-yl)ethyl)acetamide] has an IC50 of 180 nM.

“4-(2-(4-methoxyphenyl)-3-oxo-6-(3-(trifluoromethyl)benzylamino)pyrido[2,3-b]pyrazin-4(3H)-yl)butanamide [compound 35]” showed an IC50 of 150 nM.
